Source: PubChem BioAssay AID1963828 (Molecular Pharmacology Branch, DTP, NCI, 2024)
“And” between values parts separate entries of the source, which are not always exact repeats. Equal entries are not always repeated.

System: 991263-137-R1-J2-PDC complex spheroid viability
Assay: Anticancer human tumor 991263-137-R1-J2-PDC patient-derived colon adenocarcinoma cell line growth inhibition [POLQ]
Settings: for viability, T/C: stronger effect = lower value
Description: Multicellular complex tumor spheroid response to Polymerase (POL) inhibitors (novobiocin, ART-558, RP6685) in combination with a variety of drugs and investigational agents in selected tumor cell lines
The POL inhibitors (novobiocin, ART-558, and RP6685) were evaluated both individually and in combination with standard of care and investigational anticancer small molecules within a complex spheroid model of solid tumors. . Complex spheroids include a stromal component modeled by human endothelial cells (HUVEC) and fibroblasts modeled by human mesenchymal stem cells (MSCs). The concentration ranges selected for each drug and investigational agent were based upon clinically achievable concentrations if the clinical Cmax of the agent was known.
Compounds. The drugs and investigational agents: novobiocin (NSC847541), ART-558 (NSC835418), RP-6685 (NSC848927), peposertib (NSC802822), ceralasertib (NSC780249), elimusertib (NSC800525), camonsertib (NSC841442), AZD-1390 (NSC803789), olaparib (NSC753686), talazoparib (NSC767125), rucaparib (NSC756644), sotorasib (NSC818433), MRTX-1133 (NSC836407), SN-38 (NSC673596), topotecan (NSC609699), epotoside (NSC141540), doxorubicin (NSC123127), gemcitabine (NSC613327), 5-fluorouracil (NSC19893), paclitaxel (NSC125973), vemurafenib (NSC761431), MSA-2 (NSC828583), SN-011 (NSC837082), adavosertib (NSC754352), prexasertib (NSC758257), carboplatin (NSC241240) and oxaliplatin (NSC266046), were obtained from the National Cancer Institute (NCI) Developmental Therapeutics Program Chemical Repository (21). The FDA-approved anticancer drug set is available from the Developmental Therapeutics Program at https://dtp.cancer.gov/organization/dscb/obtaining/. […] The stock solutions were prepared in dimethyl sulfoxide (DMSO, Sigma-Aldrich, St. Louis, MO, cat. D2650), except for the platinum compounds which were prepared in saline (Quality Biological, Gaithersburg, MD, cat. 114-055-101), at 800-fold the tested concentration and stored at -70 degrees C prior to their use. All drugs and investigational agents were tested over a range starting from a high concentration at or near the clinical Cmax and decreasing in half-log increments. If the clinical Cmax for an agent had not been determined, the highest concentration tested was 10 microM, except for SN-38, which was tested at a high concentration of 1 microM.
Cell Culture. All cells were maintained in an incubator at 37 degrees C and 5% CO2 with 95% humidity. The PDC lines were cultured according to standard operating procedures established by the NCI PDMR (https://pdmr.cancer.gov). Table 3 of the manuscript, lists the cell lines along with the number of the three cell types plated to form the mct-spheroids and media for tumor cell growth. After thawing, all PDC lines, except 997537-175-T-J1-PDC and 415267-285-R-J2-PDC, were cultured in Matrigel-coated flasks prepared with a working solution of 1X Ham's F-12 nutrient mix, without supplementation (Thermo Fisher Scientific, cat. 11765054), 100 U/mL penicillin-streptomycin (Thermo Fisher Scientific, cat. 15140122), and 2.5% Matrigel (Corning Inc., Corning, NY, cat. 354248) for the first three passages. The two PDC lines 997537-175-T-J1-PDC and 415267-285-R-J2-PDC were cultured on uncoated flasks. The 857933-349-R-J2-PDC line was cultured in 6C/Colon 1B media containing advanced DMEM/F-12 (Thermo Fisher Scientific, cat. 12634028), 10 mM HEPES (Thermo Fisher Scientific, cat. 15630080), 1X GlutaMAX supplement (Thermo Fisher Scientific, cat. 35050061), 0.1 mg/mL primocin (InvivoGen, San Diego, CA, cat. ant-pm-2), 10% defined fetal bovine serum, heat inactivated (HyClone Laboratories Inc., Logan, UT, cat. SH30070.03HI), 50% L-WRN conditioned media (ATCC, cat. CRL-3276), 1.25 mM N-Acetyl-L-cysteine (Sigma-Aldrich, cat. A9165), 10 mM nicotinamide (Sigma-Aldrich, cat. N0636), 1X B-27 supplement (Thermo Fisher Scientific, cat. 17504044), 1X N-2 supplement (Thermo Fisher Scientific, cat. […]
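Also: spheroids exposed to compounds for 7 days before readout.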
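For viability, T/C in this document: 100% = DMSO vehicle control viability.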

| SMILES | viability, T/C (compound 0.00316 µM) | viability, T/C (compound 0.01 µM) | viability, T/C (compound 0.0316 µM) | viability, T/C (compound 0.1 µM) | viability, T/C (compound 1 µM) | IC50 (curve of compound) | viability, T/C (compound 0.316 µM) | viability, T/C (compound 3.16 µM) | viability, T/C (compound 10 µM) | other results |
| --- | --- | --- | --- | --- | --- | --- | --- | --- | --- | --- |
| C=CCn1c(=O)c2cnc(Nc3ccc(N4CCN(C)CC4)cc3)nc2n1-c1cccc(C(C)(C)O)n1 | 103% and 105% and 106% | 88.5% and 105% and 93.9% | 87% and 106% and 98.4% | 107% and 98.7% and 95.2% | 86.5% and 94.9% and 95% | > 1000 nM |  |  |  |  |
| CC(=O)O[C@H]1C(=O)[C@@]2(C)[C@H]([C@H](OC(=O)c3ccccc3)[C@]3(O)C[C@H](OC(=O)[C@H](O)[C@@H](NC(=O)c4ccccc4)c4ccccc4)C(C)=C1C3(C)C)[C@]1(OC(C)=O)CO[C@@H]1C[C@@H]2O |  |  |  |  |  | 1450 nM and 2480 nM and 1630 nM |  |  |  | viability, T/C (compound 0.00949 µM): 79.8% and 86.8% and 96.5%; viability, T/C (compound 0.03 µM): 85.2% and 89.3% and 87.6%; viability, T/C (compound 0.0949 µM): 85.4% and 84% and 87.8%; viability, T/C (compound 0.3 µM): 73.3% and 77.9% and 82.3%; viability, T/C (compound 0.949 µM): 52.2% and 63.6% and 54.8%; viability, T/C (compound 3 µM): 46.8% and 47.3% and 44.4% |
| CC1COCCN1c1cc(C2(S(C)(=N)=O)CC2)nc(-c2ccnc3[nH]ccc23)n1 (stereo not given) |  |  | 107% and 98.9% and 98.6% | 96.1% and 109% and 104% | 103% and 101% and 95.1% | > 10000 nM | 100% and 94.6% and 92.8% | 83% and 97.9% and 103% | 75.5% and 93.9% and 74.7% |  |
| CCCS(=O)(=O)Nc1ccc(F)c(C(=O)c2c[nH]c3ncc(-c4ccc(Cl)cc4)cc23)c1F |  |  | 110% and 93.5% and 111% | 99.2% and 90.3% and 101% |  | > 10000 nM | 108% and 94.4% and 86% | 114% and 104% and 107% | 97.2% and 94.1% and 109% |  |
| CC[C@@]1(O)C(=O)OCc2c1cc1n(c2=O)Cc2cc3c(CN(C)C)c(O)ccc3nc2-1 | 110% (2×) and 111% | 105% and 101% and 91.5% | 100% and 91.2% and 89.8% | 90.4% and 80.7% and 84.4% |  | > 100 nM |  |  |  | viability, T/C (compound 0.000316 µM): 111% and 94.9% and 103%; viability, T/C (compound 0.001 µM): 101% and 96.9% and 107% |
| CCc1c2c(nc3ccc(O)cc13)-c1cc3c(c(=O)n1C2)COC(=O)[C@]3(O)CC | 88.8% and 83.4% and 108% | 80% and 74.9% and 74% | 63% and 64.4% and 51.9% | 49.8% and 45.2% and 54.4% | 25.2% and 26.9% and 20.9% | 99 nM and 83.3 nM and 93.9 nM | 37.3% and 37.2% and 36.9% |  |  |  |
| CNCc1ccc(-c2[nH]c3cc(F)cc4c3c2CCNC4=O)cc1 |  |  | 98% and 102% and 119% | 109% and 91.5% and 97.6% | 110% and 101% and 96% | > 10000 nM | 97% and 102% and 112% |  | 111% and 110% and 104% |  |
| COC1C(OC(N)=O)C(O)C(Oc2ccc3c(O)c(NC(=O)c4ccc(O)c(CC=C(C)C)c4)c(=O)oc3c2C)OC1(C)C (stereo not given) |  |  | 102% [middle of 12 runs] |  |  |  | 103% [middle of 12 runs] |  |  | IC50 (compound alone, run of 01/08/2024): > 10000 nM |
| COc1cc(C2c3cc4c(cc3C(OC3OC5COC(C)OC5C(O)C3O)C3COC(=O)C23)OCO4)cc(OC)c1O (stereo not given) |  |  | 105% and 96.4% and 99.6% | 86.2% and 94.5% and 92.4% | 97.8% and 95.9% and 92.5% | > 10000 nM |  | 77.9% and 88.6% and 71.9% | 69.9% and 77% and 77.1% |  |
